# Measured values as given in patent US20110039779A1, “IGF-1R BINDING PROTEINS AND ANTAGONISTS” (priority 2007, published 2011).
# Where two headings read alike, the source gives them in different places. Where a SMILES comes first, the peptide text is derived from it.
# Assays:
# HIGF-1R = target: T1, HIGF-1R (Homo sapiens, UniProt P08069); assay: IGF-1R affinity, scintillation proximity assay (SPA assay), 125I-IGF1 displacement; assay type: binding
# T1 construct: HIGF-1R was purified from a cell culture of BHK cells stably transfected with IGF-1R cDNA; made in house; host or cells: BHK cells stably transfected with IGF-1R cDNA
# Text: In certain cases, a scintillation proximity assay (SPA assay) was used to determine IGF-1R affinity.
# MAPK42 = assay: downstream signaling in L6 cells: MAPK42; assay type: cell-based; conditions: 3 nM IGF-1, read-out: MAPK42, IC50 for down regulation of the stimulation to the basal level
# Description: (§1) The tyrosine phosphorylation of IRS signaling (the 180 kDa band on a tyrosine phosphor Western blot) as well as activation of effectors MAPK 44 and 42 and PKB were analyzed by using antibodies specific for their active forms using methods substantially similar to those described in Example 14 of the '246 PCT application.
# (§2) The effect of select peptides on downstream signaling (MAPK44, MAPK42, PKB/Akt, IRS-1, and IGF-1R) was also measured by studying the signaling in L6 cells predominantly expressing IGF-1R and very limited insulin receptors. […] The antagonistic effect of the peptides can be seen to affect all the downstream signaling from the IGF-1R.
# IRS-1 = assay: downstream signaling: IRS-1 tyrosine phosphorylation; assay type: cell-based; conditions: for IC50: L6 cells, 3 nM IGF-1, read-out: IRS-1, IC50 for down regulation of the stimulation to the basal level
# Description: as §1, §2
# MAPK44 = assay: downstream signaling in L6 cells: MAPK44; assay type: cell-based; conditions: 3 nM IGF-1, read-out: MAPK44, IC50 for down regulation of the stimulation to the basal level
# Description: as §1, §2
# MiaPaCa cells [1] = assay: MiaPaCa tumor growth inhibition in nude mice; assay type: in vivo
# Description: Nude mice were inoculated with MiaPaCa cells (one million cells in matrigel) on the flank and followed until tumors reached a volume of greater than 100 mm^3. […] Animals were injected by the subcutaneous route 4 times per week for 3 weeks and followed for an additional 2 weeks without injections. Tumors were measured twice weekly. Animals were sacrificed and the tumors excised, weighed and photographed.
# MCF7 cells = MCF7 cells (Homo sapiens, UniProt P08069); assay: antagonism assay in starved MCF7 cells, luminescence viability, 72 hrs; assay type: cell-based; conditions: Table 9
# Description: Additional binding and antagonism assays using candidate peptides were performed. […] Cell viability was determined by luminescence assay and IC50 was calculated using standard techniques.
# MiaPaCa cells [2] = assay: gene expression changes in MiaPaCa cells (gene arrays); assay type: cell-based, human; conditions: IGF-1 (25 ng/ml) +/− ANT-429, 24 hours
# IGF-IR = assay: downstream signaling in L6 cells: IGF-IR; assay type: cell-based; conditions: 3 nM IGF-1, read-out: IGF-IR, IC50 for down regulation of the stimulation to the basal level
# Description: as §1, §2
# PKB/Akt = assay: downstream signaling in L6 cells: PKB/Akt; assay type: cell-based; conditions: 3 nM IGF-1, read-out: PKB/Akt, IC50 for down regulation of the stimulation to the basal level
# Description: as §1, §2
# SW480 cells = assay type: cell-based; conditions: for IC50: read-out: IC50, inhibition of IGF-1 (10 nM)-induced proliferation of SW480 cells
# Description: For cell growth/density studies, a mitochondrial activity assay was used, as exemplified by the following. Cells (SW480, MCF-7S8) were propagated in complete medium (DME: F12, 10% FCS (SW 480) or 5% FCS (MCF-7S8, P/S)), trypsinized, and seeded in 96 well plates as 10,000 cells/well in medium with 0.5% FCS. All wells in the periphery were omitted and only filled with medium. […] All treatments are made in triplicates. […] Treatment was continued for 48 hours (SW480 cells) or 72 hours (MCF-7S8 cells) before quantification of the cell density. Media was exchanged each day. Media and peptides were diluted in DMSO. When measuring cell density, the volume of each well was adjusted to […] Pre-diluted WST-1 (1 ml+1.5 ml DME:F12) was added as 25 μL to each well including background samples. Three wells with media only served as background controls. The cells were incubated for 90 min protected against light in an incubator.
# [3] = target: human insulin receptor (HIR) (Homo sapiens, UniProt P06213); assay: human insulin receptor (HIR) affinity; assay type: binding; conditions: printed in brackets under the HIR affinity, not explained
# Description: IGF-1R affinity studies were generally performed as follows. […] HIGF-1R was purified from a cell culture of BHK cells stably transfected with IGF-1R cDNA. The day before harvest cells were moved to serum free conditions and before harvest the cells were rinsed with and ice cold PBS solution. The cells were solubilized in cold lysis buffer (4 ml lysis buffer/1×10^8 cells); vortexed vigorously to lysis in lysis buffer (50 mM Hepes (pH 8.0); 150 mM NaCl; 1% Triton X-100; 2 mM EDTA; 10 μg/mlaprotinin; 0.5 mM PEFABLOC (Roche)); and the lysate centrifuged at 4° C., 20000 rpm, for 15 minutes. The HIGF-1R portion was absorbed to WGA-agarose beads and subjected to chromatography purification (Pharmacia biotech No 17-0760-01) (column washed with 20× column volumes wash buffer −50 mM Hepes (pH 8.0); 150 mM NaCl; 0.1% Triton X-100; 0.5 mM PEFABLOC (Roche)). The HIGF-1R portion was then eluted with 0.5 M n-Acetyl Glycosamine (NAG), 10% Glycerol in elution buffer (50 mM Hepes (pH 8.0); 150 mM NaCl; 0.1% Triton X-100; 0.5 mM PEFABLOC (Roche); 0.5 M n-acetyl glucosamine; 10% glycerol). […] After equilibration for 2 days at 4° C., each sample (200 μl) typically was precipitated by addition of 400 μl 25% PEG 6000, centrifuged, washed with 1 ml 15% PEG 6000, and counted in a gamma-counter. In some cases, human insulin receptor (HIR) affinity for select test peptides was similarly measured.
# [4] = target: T2, IGF-1R on L6 (with mainly symmetric IGF-1R) (Rattus norvegicus, UniProt P24062); assay: displacement of IGF-1 binding on L6 cells
# T2 construct: L6 cells predominantly expressing IGF-1R and very limited insulin receptors; endogenous in cells; host or cells: L6 cells
# insulin receptor/IGF-1R = assay: tyrosine phosphorylation of insulin receptor/IGF-1R in L6-hIR cells (Western blot); assay type: cell-based
# [5] = test system: SGBS adipocytes transfected with HIR-encoding DNA; assay: 3H glucose incorporation (insulin agonist activity) in SGBS adipocytes; assay type: cell-based
# Description: Insulin increases uptake of ^3H glucose into adipocytes and its conversion into lipid. Incorporation of ^3H into the lipid phase was determined by partitioning of lipid phase into a scintillant mixture, which excludes water-soluble ^3H products. […] The results are expressed as increase relative to full insulin response.
# T1 sequence (P08069 31-736 limits assumed): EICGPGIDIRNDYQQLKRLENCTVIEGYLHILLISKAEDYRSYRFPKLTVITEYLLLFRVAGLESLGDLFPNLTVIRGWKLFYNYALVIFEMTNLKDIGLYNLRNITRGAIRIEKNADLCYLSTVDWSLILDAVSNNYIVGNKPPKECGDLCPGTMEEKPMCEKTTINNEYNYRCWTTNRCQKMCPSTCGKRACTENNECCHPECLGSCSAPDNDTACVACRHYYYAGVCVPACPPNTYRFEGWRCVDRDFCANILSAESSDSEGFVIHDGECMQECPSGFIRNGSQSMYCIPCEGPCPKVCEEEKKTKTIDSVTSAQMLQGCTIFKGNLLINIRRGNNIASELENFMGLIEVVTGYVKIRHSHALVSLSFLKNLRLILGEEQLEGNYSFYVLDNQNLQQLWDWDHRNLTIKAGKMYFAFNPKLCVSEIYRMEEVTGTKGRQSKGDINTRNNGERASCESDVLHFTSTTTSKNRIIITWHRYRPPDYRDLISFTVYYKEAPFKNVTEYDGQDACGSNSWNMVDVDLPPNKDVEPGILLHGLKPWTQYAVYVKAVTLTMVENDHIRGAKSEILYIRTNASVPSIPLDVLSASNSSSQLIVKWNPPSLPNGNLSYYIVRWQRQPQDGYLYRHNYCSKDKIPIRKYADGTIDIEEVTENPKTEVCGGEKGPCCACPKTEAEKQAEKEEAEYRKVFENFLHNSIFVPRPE
# T1 sequence (P08069 741-1367 limits assumed): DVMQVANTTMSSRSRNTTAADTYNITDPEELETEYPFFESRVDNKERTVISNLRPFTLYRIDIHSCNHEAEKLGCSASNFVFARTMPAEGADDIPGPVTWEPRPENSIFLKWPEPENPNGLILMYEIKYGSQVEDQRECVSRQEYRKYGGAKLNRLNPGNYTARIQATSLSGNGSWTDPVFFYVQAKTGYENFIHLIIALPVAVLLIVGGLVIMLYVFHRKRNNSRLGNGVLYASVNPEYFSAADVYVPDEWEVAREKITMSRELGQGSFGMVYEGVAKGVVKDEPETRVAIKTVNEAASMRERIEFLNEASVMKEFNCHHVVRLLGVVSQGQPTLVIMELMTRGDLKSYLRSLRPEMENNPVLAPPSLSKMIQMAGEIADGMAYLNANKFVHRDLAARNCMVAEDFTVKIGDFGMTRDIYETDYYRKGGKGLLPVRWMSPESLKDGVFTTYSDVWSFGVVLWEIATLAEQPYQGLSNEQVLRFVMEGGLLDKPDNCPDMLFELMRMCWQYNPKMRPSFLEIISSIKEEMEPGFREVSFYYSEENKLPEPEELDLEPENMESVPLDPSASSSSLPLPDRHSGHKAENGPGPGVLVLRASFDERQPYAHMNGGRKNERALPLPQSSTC
# Sequence of MCF7 cells (P08069 31-736): as the sequence (P08069 31-736 limits assumed) above
# T2 sequence (P24062 31-737 limits assumed): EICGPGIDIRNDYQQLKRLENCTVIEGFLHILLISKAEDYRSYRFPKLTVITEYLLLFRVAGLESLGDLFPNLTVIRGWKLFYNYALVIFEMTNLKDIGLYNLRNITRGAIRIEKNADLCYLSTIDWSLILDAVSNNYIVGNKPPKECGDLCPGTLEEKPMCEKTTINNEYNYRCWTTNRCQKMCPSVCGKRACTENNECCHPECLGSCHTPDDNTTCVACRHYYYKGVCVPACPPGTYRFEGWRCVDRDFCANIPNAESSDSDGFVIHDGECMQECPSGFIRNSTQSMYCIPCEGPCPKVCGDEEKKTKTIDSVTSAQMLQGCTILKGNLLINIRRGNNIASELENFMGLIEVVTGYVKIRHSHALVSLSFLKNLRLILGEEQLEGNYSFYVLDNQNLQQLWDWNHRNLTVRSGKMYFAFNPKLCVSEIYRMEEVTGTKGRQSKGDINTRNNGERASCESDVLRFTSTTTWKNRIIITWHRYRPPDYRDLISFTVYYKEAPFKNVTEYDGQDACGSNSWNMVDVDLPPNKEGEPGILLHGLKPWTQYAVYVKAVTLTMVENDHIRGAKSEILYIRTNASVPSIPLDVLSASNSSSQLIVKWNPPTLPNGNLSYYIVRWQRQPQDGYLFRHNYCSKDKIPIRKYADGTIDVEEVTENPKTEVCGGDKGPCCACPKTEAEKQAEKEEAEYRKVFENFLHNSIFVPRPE
# T2 sequence (P24062 742-1370 limits assumed): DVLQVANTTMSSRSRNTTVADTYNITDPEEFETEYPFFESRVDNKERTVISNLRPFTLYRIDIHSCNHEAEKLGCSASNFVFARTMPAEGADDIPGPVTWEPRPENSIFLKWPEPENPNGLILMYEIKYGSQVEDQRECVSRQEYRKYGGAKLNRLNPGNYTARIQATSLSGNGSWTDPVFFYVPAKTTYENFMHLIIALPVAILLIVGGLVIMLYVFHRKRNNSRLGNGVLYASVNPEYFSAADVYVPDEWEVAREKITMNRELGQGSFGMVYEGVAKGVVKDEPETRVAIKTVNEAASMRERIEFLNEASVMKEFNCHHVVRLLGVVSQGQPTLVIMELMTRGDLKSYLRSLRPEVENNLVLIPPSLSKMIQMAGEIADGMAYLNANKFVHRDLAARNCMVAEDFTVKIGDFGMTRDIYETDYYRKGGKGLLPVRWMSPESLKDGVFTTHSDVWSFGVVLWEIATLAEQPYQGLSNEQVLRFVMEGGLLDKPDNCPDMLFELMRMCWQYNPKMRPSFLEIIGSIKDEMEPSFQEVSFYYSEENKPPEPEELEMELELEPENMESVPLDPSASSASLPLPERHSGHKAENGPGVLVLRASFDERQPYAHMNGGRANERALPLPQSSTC
# Sequence of human insulin receptor (HIR) (P06213 28-758 limits assumed): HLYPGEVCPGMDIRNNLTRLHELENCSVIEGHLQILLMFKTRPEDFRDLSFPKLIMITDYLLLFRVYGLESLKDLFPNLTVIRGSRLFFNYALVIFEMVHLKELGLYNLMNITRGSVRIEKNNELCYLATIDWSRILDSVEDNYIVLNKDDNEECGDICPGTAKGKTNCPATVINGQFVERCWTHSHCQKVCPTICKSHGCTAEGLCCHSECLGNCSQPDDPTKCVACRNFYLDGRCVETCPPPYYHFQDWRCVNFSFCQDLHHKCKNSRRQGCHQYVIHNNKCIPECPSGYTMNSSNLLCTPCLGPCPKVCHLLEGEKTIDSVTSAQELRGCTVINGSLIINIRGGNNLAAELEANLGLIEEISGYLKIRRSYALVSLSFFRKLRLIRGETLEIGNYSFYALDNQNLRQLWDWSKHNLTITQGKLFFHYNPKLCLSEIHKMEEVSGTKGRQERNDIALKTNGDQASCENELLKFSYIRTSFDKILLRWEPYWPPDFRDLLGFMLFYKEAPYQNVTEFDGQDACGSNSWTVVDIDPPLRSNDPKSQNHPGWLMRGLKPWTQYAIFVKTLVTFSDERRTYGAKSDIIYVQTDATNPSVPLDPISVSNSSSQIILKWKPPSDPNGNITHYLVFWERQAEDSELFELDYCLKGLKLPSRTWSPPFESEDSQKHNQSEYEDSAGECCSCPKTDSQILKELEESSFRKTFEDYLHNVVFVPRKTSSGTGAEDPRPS
# Sequence of human insulin receptor (HIR) (P06213 763-1382 limits assumed): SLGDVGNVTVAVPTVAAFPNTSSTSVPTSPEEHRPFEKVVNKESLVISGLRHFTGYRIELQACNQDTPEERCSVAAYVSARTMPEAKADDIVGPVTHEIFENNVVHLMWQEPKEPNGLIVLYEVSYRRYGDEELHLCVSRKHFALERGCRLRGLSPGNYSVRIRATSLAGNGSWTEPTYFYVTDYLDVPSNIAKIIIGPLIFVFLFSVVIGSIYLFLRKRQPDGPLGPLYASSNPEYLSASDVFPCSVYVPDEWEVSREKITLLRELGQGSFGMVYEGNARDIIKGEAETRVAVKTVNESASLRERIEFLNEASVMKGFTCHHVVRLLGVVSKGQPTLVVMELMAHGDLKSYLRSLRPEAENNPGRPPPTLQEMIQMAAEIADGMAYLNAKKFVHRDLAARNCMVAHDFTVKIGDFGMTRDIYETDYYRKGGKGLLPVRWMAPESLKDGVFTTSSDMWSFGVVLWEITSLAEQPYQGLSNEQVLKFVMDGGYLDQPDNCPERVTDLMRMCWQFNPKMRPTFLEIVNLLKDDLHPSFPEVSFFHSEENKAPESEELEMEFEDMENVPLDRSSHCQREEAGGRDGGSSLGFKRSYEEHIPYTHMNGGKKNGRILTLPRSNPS
molecule,measurement,setting,value
CC(C)C[C@H](NC(=O)[C@H](CCC(=O)O)NC(=O)[C@H](CCC(=O)O)NC(=O)[C@H](CS)NC(=O)[C@H](CO)NC(=O)[C@H](Cc1ccc(O)cc1)NC(=O)[C@H](Cc1ccccc1)NC(=O)[C@@H](N)CO)C(=O)N[C@H](C(=O)N[C@@H](CCC(N)=O)C(=O)NCC(=O)N1CCC[C@H]1C(=O)N[C@@H](C)C(=O)N[C@@H](CCC(=O)O)C(=O)N[C@@H](CCCCN)C(=O)N[C@@H](CO)C(=O)N[C@@H](CCCCN)C(=O)NCC(=O)N[C@@H](CCC(N)=O)C(=O)N[C@@H](Cc1c[nH]c2ccccc12)C(=O)N[C@@H](CCC(=O)O)C(=O)NCC(=O)N[C@@H](CS)C(=O)N[C@@H](CCCCN)C(=O)N[C@@H](CCCCN)C(=O)O)C(C)C [Peptide F370] (H-SFYSCEELVQGPAEKSKGQWEGCKK-OH),Kd,HIGF-1R,23000 nM
DFYGCLLDLSLGVPSLGWRRRCITA [Peptide F429],IC50,MAPK42,300 nM
same,potency for inhibiting down stream signaling through IRS-1 upon IGF-1 stimulation,"IRS-1; +/−3 nM IGF-1, FIG. 7 and FIG. 8",potency of F429 is higher than F138
same,IC50,IRS-1,40 nM
same,IC50,MAPK44,100 nM
same,"complete remission, animals",MiaPaCa cells [1]; […] (50 ug/injection),one
same,animals responding to treatment,"MiaPaCa cells [1]; […] (50 ug/injection), subcutaneous 4 times per week for 3 weeks",Two out of five
same,tumor growth,"MiaPaCa cells [1]; group printed as 15 mg/kg (design: 300 ug/injection, 12 mg/kg), subcutaneous 4 times per week for 3 weeks",significant inhibition of growth
same,"complete remission, animals","MiaPaCa cells [1]; group printed as 15 mg/kg, subcutaneous 4 times per week for 3 weeks",one
same,Activity,MCF7 cells,Antagonist
same,changes in apoptosis gene expression,MiaPaCa cells [2],modulate apoptosis genes
same,IC50,IGF-IR,50 nM
same,IC50,PKB/Akt,100 nM
same,IC50,SW480 cells; experiment 13717-019,500 nM
same,IC50,SW480 cells; experiment 13717-027,1000 nM
QFYGCLLDLSLGVPSFGWRRRCITA [Peptide F138],IC50,MAPK42,300 nM
same,"HIR affinity, value in brackets",[3],(0.013%)
same,IC50,IRS-1,300 nM
same,concentration displacing IGF-1 binding to IGF-1R on L6,[4],100 nM
same,inhibition of IGF-1 induced versus insulin induced phosphorylation,insulin receptor/IGF-1R,Some selectivity for inhibiting IGF-1 induced tyrosine phosphorylation as compared to insulin induced phosphorylation
same,IC50 in SW480 (M) in presence of IGF-1/alone: in presence of IGF-1,"SW480 cells; first value of the cell: concentration needed to blunt the effect of 10 nM IGF-1, cells in words only = effect as reported, 48 hours",Antagonistic
same,"inhibition of basal growth of SW480, doses",SW480 cells; without IGF-1,> 100 nM
same,effect on glucose uptake induced by insulin or IGF-1,"[5]; SGBS adipocytes, FIGS. 1A and 1B",neither peptide F138 nor peptide F293 has any substantial effect on glucose uptake induced by insulin or IGF-1
same,doses not affecting glucose uptake in response to insulin/IGF-1,[5]; SGBS cells,< 5 µM
